Experimental findings from patent US9254252B2, “Compounds” (DSM IP ASSETS B.V., priority 2011, dated 2016) are described below.

The data set is described as follows: Solubility of resveratrol in trilaureth-4 phosphate, judged by visual observation of transparency. It is filed as physicochemical. Details: key to Solubility: +: partially; from + = partially to +++ = fully soluble; +++: fully soluble. Particulars: for Solubility: 40° C. On the procedure:
To evaluate solubility of resveratrol in trilaureth-4 phosphate, the following procedure was adopted: lab glass beakers of 250 ml capacity were filled with the phosphate ester surfactant in the range as indicated in Table 1. The final volume was 50 ml. Solubilization occurs almost instantaneously, however the beakers were vigorously shaken for about 1 minute at 6000 rpm. Level of solubility was judged by visual observation of transparency.

As to `Oc1ccc(/C=C/c2cc(O)cc(O)c2)cc1` [Resveratrol, 5-[(1E)-2-(4-hydroxyphenyl)ethenyl]-1,3-Benzenediol], where the note is “in trilaureth-4 phosphate”, the “threshold level of solubility” value is recorded as “around 10%”. For the same compound, the “solubility in the emulsifier” value (in trilaureth-4 phosphate, room temperature) is recorded as “solubilizes well”. Also, the Solubility result (resveratrol 2 wt.-% in trilaureth-4 phosphate 98 wt.-%) is “+++”; the Solubility result (resveratrol 4 wt.-% in trilaureth-4 phosphate 96 wt.-%) was “+++”; the Solubility result (resveratrol 6 wt.-% in trilaureth-4 phosphate 94 wt.-%) is given as “+++”; the Solubility entry (resveratrol 8 wt.-% in trilaureth-4 phosphate 92 wt.-%) is listed as “+++”; the Solubility entry (resveratrol 10 wt.-% in trilaureth-4 phosphate 90 wt.-%) was “+++”; the Solubility entry (resveratrol 12 wt.-% in trilaureth-4 phosphate 88 wt.-%) is listed as “++”.
